Results published in US6737383B1, “Herbicidal oxadiazolidines” (priority 1999, dated 2004).

Key:
morningglory = assay: Test B pre/postemergence morningglory; assay type: in vivo, Ipomoea hederacea
How it was run: (§1)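 Herbicidal effect was estimated by eye on a ten-point control scale after plants spent twelve to sixteen days in a greenhouse following soil or foliar treatment. Foliar sprays targeted plants at one to four leaves; all doses were formulated in a non-phytotoxic solvent with surfactant.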

rice = assay: Test B flood test rice; assay type: in vivo, Oryza sativa
How it was run: (§2)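 Plants were grown to the 2-leaf stage before treatment with test chemical, then held in a greenhouse for twelve to sixteen days. Injury was visually rated against untreated controls on a 0–10 scale, where 0 is no effect and 10 is complete control.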

bamyardgrass = assay: Test B flood test barnyardgrass; assay type: in vivo, Echinochloa crus-galli
How it was run: as §2

corn = assay: Test B pre/postemergence corn; assay type: in vivo, Zea mays
How it was run: as §1

sugar beet = assay: Test B pre/postemergence sugar beet; assay type: in vivo, Beta vulgaris
How it was run: as §1

purple nutsedge = assay: Test B pre/postemergence purple nutsedge; assay type: in vivo, Cyperus rotundus
How it was run: as §1

blackgrass = assay: Test B pre/postemergence blackgrass; assay type: in vivo, Alopecurus myosuroides
How it was run: as §1

rape = assay: Test B pre/postemergence rape; assay type: in vivo, Brassica napus
How it was run: as §1

smallflower flatsedge = assay: Test B flood test smallflower flatsedge; assay type: in vivo, Cyperus difformis
How it was run: as §2

pigweed = assay: Test B pre/postemergence pigweed; assay type: in vivo, Amaranthus retroflexus
How it was run: as §1

soybean = assay: Test B pre/postemergence soybean; assay type: in vivo, Glycine max
How it was run: as §1

cocklebur = assay: Test B pre/postemergence cocklebur; assay type: in vivo, Xanthium strumarium
How it was run: as §1

wild oat = assay: Test B pre/postemergence wild oat; assay type: in vivo, Avena fatua
How it was run: as §1

velvetleaf = assay: Test B pre/postemergence velvetleaf; assay type: in vivo, Abutilon theophrasti
How it was run: as §1

bedstraw = assay: Test B pre/postemergence bedstraw; assay type: in vivo, Galium aparine; details: Postemergence, Rate 500 g/ha; scale of 0 to 10 where 0 is no effect and 10 is complete control
How it was run: as §1

surinam grass = assay: Test B pre/postemergence surinam grass; assay type: in vivo, Brachiaria decumbens
How it was run: as §1

[1] = Postemergence, Rate 250 g/ha, scale 0 to 10, 0 is no effect, 10 is complete control
[2] = Postemergence, Rate 500 g/ha, scale of 0 to 10 where 0 is no effect and 10 is complete control
[3] = Preemergence, Rate 62 g/ha, scale 0 to 10 (0 no effect, 10 complete control)
[4] = Preemergence, Rate 125 g/ha, scale of 0 to 10 where 0 is no effect and 10 is complete control
[5] = Preemergence, Rate 250 g/ha, scale of 0 to 10 where 0 is no effect and 10 is complete control
[6] = Preemergence, Rate 500 g/ha, scale of 0 to 10 where 0 is no effect and 10 is complete control
[7] = Rate 62 g/ha, Postemergence, scale of 0 to 10 where 0 is no effect and 10 is complete control
[8] = Rate 62 g/ha, flood test species, Pre-emergence, visual evaluation after twelve to sixteen days
[9] = Rate 125 g/ha, under heading Pre-emergence, flood test species, visual evaluation after twelve to sixteen days
[10] = Rate 250 g/ha, Pre-emergence, flood-test species, scale 0 to 10, 0 is no effect, 10 is complete control
[11] = Rate 500 g/ha, Pre-emergence, flood test species, scale 0 to 10 (0 no effect, 10 complete control)
[12] = Postemergence, Rate 125 g/ha, scale 0 to 10, 0 is no effect, 10 is complete control

CC(C)N(C(=O)n1oc(=O)[nH]c1=O)c1ccc(F)cc1F [Compound 391]
0: Plant response rating, Morningglory (morningglory; [1]) | Morningglory plant response rating (morningglory; [2]) | Plant response rating, Morningglory (morningglory; [3]) | Plant response rating, Morningglory (morningglory; [4]) | Morningglory plant response rating (morningglory; [5]) | Morningglory plant response rating (morningglory; [6]) | Morningglory plant response rating (morningglory; [7]) | Plant response rating, Rice (0 to 10 scale, 0 is no effect, 10 is complete control) (rice; [8]) | Rice plant response rating (0 to 10 scale, 0 is no effect, 10 is complete control) (rice; [9]) | Rice plant response rating (rice; [10]) | Rice plant response rating (rice; [11]) | Plant response rating, Barnyardgrass (0 to 10 scale, 0 is no effect, 10 is complete control) (bamyardgrass; [8]) | Barnyardgrass plant response rating (0 to 10 scale, 0 is no effect, 10 is complete control) (bamyardgrass; [9]) | Barnyardgrass plant response rating (bamyardgrass; [10]) | Barnyardgrass plant response rating (bamyardgrass; [11]) | Plant response rating, Corn (corn; [12]) | Plant response rating, Corn (corn; [1]) | Corn plant response rating (corn; [2]) | Plant response rating, Corn (corn; [3]) | Plant response rating, Corn (corn; [4]) | Corn plant response rating (corn; [5]) | Corn plant response rating (corn; [6]) | Corn plant response rating (corn; [7]) | Plant response rating, Sugarbeets (sugar beet; [1]) | Sugarbeets plant response rating (sugar beet; [2]) | Plant response rating, Sugarbeets (sugar beet; [3]) | Plant response rating, Sugarbeets (sugar beet; [4]) | Sugarbeets plant response rating (sugar beet; [5]) | Sugarbeets plant response rating (sugar beet; [6]) | Sugarbeets plant response rating (sugar beet; [7]) | Plant response rating, Nutsedge (purple nutsedge; [1]) | Nutsedge plant response rating (purple nutsedge; [2]) | Plant response rating, Nutsedge (purple nutsedge; [3]) | Plant response rating, Nutsedge (purple nutsedge; [4]) | Nutsedge plant response rating (purple nutsedge; [5]) | Nutsedge plant response rating (purple nutsedge; [6]) | Nutsedge plant response rating (purple nutsedge; [7]) | Plant response rating, Blackgrass (blackgrass; [1]) | Blackgrass plant response rating (blackgrass; [2]) | Plant response rating, Blackgrass (blackgrass; [3]) | Plant response rating, Blackgrass (blackgrass; [4]) | Blackgrass plant response rating (blackgrass; [5]) | Blackgrass plant response rating (blackgrass; [6]) | Plant response rating, Rape (rape; [1]) | Rape plant response rating (rape; [2]) | Plant response rating, Rape (rape; [3]) | Plant response rating, Rape (rape; [4]) | Rape plant response rating (rape; [5]) | Rape plant response rating (rape; [6]) | Rape plant response rating (rape; [7]) | Plant response rating, S. Flatsedge (0 to 10 scale, 0 is no effect, 10 is complete control) (smallflower flatsedge; [8]) | S. Flatsedge plant response rating (0 to 10 scale, 0 is no effect, 10 is complete control) (smallflower flatsedge; [9]) | S. Flatsedge plant response rating (smallflower flatsedge; [10]) | S. Flatsedge plant response rating (smallflower flatsedge; [11]) | Plant response rating, Redroot pigweed (pigweed; [1]) | Redroot pigweed plant response rating (pigweed; [2]) | Plant response rating, Redroot pigweed (pigweed; [3]) | Plant response rating, Redroot pigweed (pigweed; [4]) | Redroot pigweed plant response rating (pigweed; [5]) | Redroot pigweed plant response rating (pigweed; [6]) | Redroot pigweed plant response rating (pigweed; [7]) | Plant response rating, Soybean (soybean; [1]) | Soybean plant response rating (soybean; [2]) | Plant response rating, Soybean (soybean; [3]) | Plant response rating, Soybean (soybean; [4]) | Soybean plant response rating (soybean; [5]) | Soybean plant response rating (soybean; [6]) | Soybean plant response rating (soybean; [7]) | Plant response rating, Cocklebur (cocklebur; [12]) | Plant response rating, Cocklebur (cocklebur; [1]) | Cocklebur plant response rating (cocklebur; [2]) | Plant response rating, Cocklebur (cocklebur; [3]) | Plant response rating, Cocklebur (cocklebur; [4]) | Cocklebur plant response rating (cocklebur; [5]) | Cocklebur plant response rating (cocklebur; [6]) | Cocklebur plant response rating (cocklebur; [7]) | Plant response rating, Wild oats (wild oat; [1]) | Wild oats plant response rating (wild oat; [2]) | Plant response rating, Wild oats (wild oat; [3]) | Plant response rating, Wild oats (wild oat; [4]) | Wild oats plant response rating (wild oat; [5]) | Wild oats plant response rating (wild oat; [6]) | Wild oats plant response rating (wild oat; [7]) | Plant response rating, Velvetleaf (velvetleaf; [1]) | Velvetleaf plant response rating (velvetleaf; [2]) | Plant response rating, Velvetleaf (velvetleaf; [3]) | Plant response rating, Velvetleaf (velvetleaf; [4]) | Velvetleaf plant response rating (velvetleaf; [5]) | Velvetleaf plant response rating (velvetleaf; [6]) | Velvetleaf plant response rating (velvetleaf; [7]) | Bedstraw plant response rating (bedstraw) | Plant response rating, B. signalgrass (surinam grass; [12]) | Plant response rating, B. signalgrass (surinam grass; [1]) | B. signalgrass plant response rating (surinam grass; [2]) | Plant response rating, B. signalgrass (surinam grass; [3]) | Plant response rating, B. signalgrass (surinam grass; [4]) | B. signalgrass plant response rating (surinam grass; [5]) | B. signalgrass plant response rating (surinam grass; [6]) | B. signalgrass plant response rating (surinam grass; [7])
